{
  "source": "patent US20230225313A1",
  "about": "“Methods and Compositions for Use in Glued-Wood Products” (ARXADA AG, priority 2020, published 2023)",
  "test": "Thermogravimetric analysis (TGA), degradation temperature",
  "assay_type": "physicochemical",
  "description": "The choice of suitable thermoplastics must also account for the biocide degradation temperature. The temperature of the melted thermoplastic at the point of biocide addition can be any temperature up to the biocide degradation temperature, preferably at least 20° C., and more preferably at least 40° C. below the biocide degradation temperature. Biocide degradation temperatures are most conveniently determined by thermogravimetric analysis (TGA). Unless hot melt mixing is to be performed in an inert atmosphere, TGA should be performed in air to account for oxidative degradation. TGA can be performed according to ISO 11358-1:2014.\nImidacloprid has a degradation temperature of about 274° C. (onset of weight loss, see the thermogravimetric analysis data in FIG. 1). Accordingly, the mixing of imidacloprid with any thermoplastic by hot melt extrusion (HME) should be performed at temperatures less than about 270° C.\nDegradation temperatures were established by thermogravimetric analysis (TGA, see FIG. 1) with the following results: bifenthrin 195° C., triadimefon 195° C., and cyproconazole 205° C. These temperatures indicate upper limits for processing these biocides by HME. The melting points for these biocides are: bifenthrin 57-64.6° C., triadimefon 82.3° C., and cyproconazole 106.2-106.9° C.).\n“Friable biocide-composites” comprising a biocide, a thermoplastic and an embrittling agent were formed by HME along with a “solidified biocide-composite” comprising a biocide and an embrittling agent, i.e. no thermoplastic. The organoclay Tixogel MP 100 was used as the embrittling agent. Tixogel MP 100 has a thermal degradation temperature of 222° C. measured as onset of weight loss (FIG. 7, note a slight initial loss of moisture). This temperature represents a practical upper limit for HME when using Tixogel MP 100.",
  "note": "Read-outs that look alike come from different tables or passages of the source.",
  "data": [
    {"smiles": "Cc1c(COC(=O)[C@@H]2[C@H](/C=C(\\Cl)C(F)(F)F)C2(C)C)cccc1-c1ccccc1", "note": "(relative stereo) [bifenthrin, (2-methyl[1,1′-biphenyl]-3-yl)methyl (1R,3R)-rel-3-[(1Z)-2-chloro-3,3,3-trifluoro-1-propen-1-yl]-2,2-dimethylcyclopropanecarboxylate]", "values": [
      {"measurement": "Degradation temperature", "setting": "TGA, onset of weight loss", "value": 195, "unit": "°C"}
    ]},
    {"smiles": "O=[N+]([O-])NC1=NCCN1Cc1ccc(Cl)nc1", "note": "[Imidacloprid, (2E)-1-[(6-chloro-3-pyridinyl)methyl]-N-nitro-2-imidazolidinimin]", "values": [
      {"measurement": "Degradation temperature", "value": "about 274 °C"}
    ]},
    {"smiles": "CC(C1CC1)C(O)(Cn1cncn1)c1ccc(Cl)cc1", "note": "(stereo not drawn) [cyproconazole, α-(4-chlorophenyl)-α-(1-cyclopropylethyl)-1H-1,2,4-triazole-1-ethanol]", "values": [
      {"measurement": "Degradation temperature", "value": 205, "unit": "°C"}
    ]},
    {"smiles": "CC(C)(C)C(=O)C(Oc1ccc(Cl)cc1)n1cncn1", "note": "(stereo not shown) [triadimefon, 1-(4-chlorophenoxy)-3,3-dimethyl-1-(1H-1,2,4-triazol-1-yl)-2-butanone]", "values": [
      {"measurement": "Degradation temperature", "setting": "TGA, onset of weight loss", "value": 195, "unit": "°C"}
    ]}
  ]
}
